Test results as given in EP4032896A1, “THIAZOLOPYRIMIDONES AS INHIBITORS OF DDR1/2 AND THERAPEUTIC USES THEREOF” (Fundación del Sector Público Estatal Centro Nacional de …, priority 2021, dated 2022).

Assays:
[1] = biological target: T1, DDR1 (Homo sapiens, UniProt Q08345); experiment: LanthaScreen Eu-Kinase Binding Assay (TR-FRET tracer displacement), DDR1; conditions: catalytic domain GST Tag DDR1; Kinase Tracer 178
T1 construct: The enzymes were purchased as a catalytic domain GST Tag DDR1(#PR6913A); purchased ThermoFisher PR6913A
Description: (§1) DDR1/2 binding assay: The binding assay relies on the LanthaScreen ™ Eu-Kinase Binding Assay (ThermoFisher Scientfic). This is a kinase assay platform based on measuring the binding and displacement of an Alexa Fluor® conjugate of an ATP-competitive kinase inhibitor or tracer at a kinase active site (Kinase Tracer 178. #PV5593). Binding of the tracer to the kinase is detected by addition of a europium (Eu)-labeled anti-GST antibody (#PV 5594) which specifically labels the kinase of interest. This binding results in a high degree of fluorescence resonance energy transfer (FRET), whereas displacement of the tracer with a kinase inhibitor results in a loss of FRET. The enzymes were purchased as a catalytic domain GST Tag DDR1(#PR6913A) and DDR2 (#PR7167A) from ThermoFisher. Assay conditions were as indicated by the kit manufacturers. Assays were performed in 384-well plates. The final read out was generated using an EnVision plate reader (Perkin-Elmer). The emission ratio was calculated by dividing the acceptor/tracer emission (665 nm) by the antibody/donor emission (615 nm). Values were plotted against the inhibitor concentration and fit to a sigmoid dose-response curve using Activity base by IDBS software.

[2] = biological target: T2, DDR2 (Homo sapiens, UniProt Q16832); experiment: LanthaScreen Eu-Kinase Binding Assay (TR-FRET tracer displacement), DDR2; conditions: catalytic domain GST Tag DDR2; Kinase Tracer 178
T2 construct: The enzymes were purchased as a catalytic domain GST Tag DDR1(#PR6913A) and DDR2 (#PR7167A); purchased ThermoFisher PR7167A
T2 sequence (Q16832 563-849 limits assumed): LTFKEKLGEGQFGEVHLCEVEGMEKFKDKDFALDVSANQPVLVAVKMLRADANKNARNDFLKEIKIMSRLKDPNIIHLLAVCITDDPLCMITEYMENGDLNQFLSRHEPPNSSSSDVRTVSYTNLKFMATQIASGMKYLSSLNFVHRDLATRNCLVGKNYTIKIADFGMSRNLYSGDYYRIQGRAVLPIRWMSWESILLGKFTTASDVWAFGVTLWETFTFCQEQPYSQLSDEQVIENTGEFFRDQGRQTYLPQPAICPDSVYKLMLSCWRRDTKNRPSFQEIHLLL
Description: as §1

[3] = biological target: T3, DDR1 (Mus musculus, UniProt Q03146); experiment: Cellular assay: inhibition of Collagen I-induced DDR1 autophosphorylation in HEK293T cells transiently transfected with DDR1 plasmid (Western blot); type: cell-based, human; conditions: pcDNA3.1 DDR1 WT mouse plasmid, compound 1 h, then 10 µg/mL Collagen I 1 h, P-DDR1 (Y513), read-out: pDDR1 EC50
T3 construct: expressed in transfected cells; host or cells: HEK293T
T3 sequence (Q03146 20-911): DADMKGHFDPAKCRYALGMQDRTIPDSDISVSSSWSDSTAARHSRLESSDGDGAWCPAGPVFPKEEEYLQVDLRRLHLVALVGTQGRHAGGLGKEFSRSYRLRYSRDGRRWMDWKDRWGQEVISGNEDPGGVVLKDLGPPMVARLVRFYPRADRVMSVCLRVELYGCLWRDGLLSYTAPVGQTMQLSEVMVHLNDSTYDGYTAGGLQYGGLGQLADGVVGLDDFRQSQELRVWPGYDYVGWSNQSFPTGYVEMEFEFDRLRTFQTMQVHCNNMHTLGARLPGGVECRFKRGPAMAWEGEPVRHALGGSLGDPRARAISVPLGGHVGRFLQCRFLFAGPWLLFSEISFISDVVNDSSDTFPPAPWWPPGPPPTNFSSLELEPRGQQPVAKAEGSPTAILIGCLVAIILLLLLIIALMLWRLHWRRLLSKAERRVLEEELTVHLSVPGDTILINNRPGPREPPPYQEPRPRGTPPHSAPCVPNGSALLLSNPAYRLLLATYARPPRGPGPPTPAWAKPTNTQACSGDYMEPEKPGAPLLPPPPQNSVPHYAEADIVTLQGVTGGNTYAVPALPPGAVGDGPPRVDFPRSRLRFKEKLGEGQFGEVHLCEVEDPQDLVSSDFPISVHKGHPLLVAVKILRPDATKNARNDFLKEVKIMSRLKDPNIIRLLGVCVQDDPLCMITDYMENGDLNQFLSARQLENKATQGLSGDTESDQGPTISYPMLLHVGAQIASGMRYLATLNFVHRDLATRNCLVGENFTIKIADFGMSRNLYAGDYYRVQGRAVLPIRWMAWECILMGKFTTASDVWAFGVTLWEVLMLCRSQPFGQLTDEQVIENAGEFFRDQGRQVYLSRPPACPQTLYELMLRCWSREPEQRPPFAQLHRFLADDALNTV
Experimental: DDR1/2 cellular assay: Transient transfection of HEK293T cells with DDR1 plasmid is used to study the inhibition of the autophosphorylation of DDR1 induced by Collagen I in cells. HEK293T are seeded, 6x10^5 cells per well in 6-well plates and incubated for 6 h at 37 °C, 5% CO2. Then, cells are transfected using Effectene reactive (Quiagen) with pcDNA3.1 DDR1 WT mouse plasmid. Cells are incubated with transfection complexes under normal growth conditions for 24 h. After that, medium is replaced with fresh medium and cells are incubated for an additional 18 h. Eight serial 1:3 compound dilutions are made in DMSO. The compounds are added to each well of 6 well cell plates and are incubated at 37 °C under CO2 atmosphere 1 h. DDR1's autophosphorylation is stimulated by 1h treatment with 10 µg/mL Collagen I. Then, cells are washed in PBS, lyse adding 100 µl of complete RIPA protein lysis buffer (RIPA Buffer, 1 mM DTT, 5 mM Bezamidine, 10 µg/mL Aprotinin, 10 µg/mL Leupeptin, 710 ng/mL Pepstatin A, 100 µg/mL Trypsin Inhibitor, 40 µg/mL Bestatin, completed with PhosSTOP EASYpack and complete Mini, EDTA-free) and incubated 20 minutes at 4 °C and then centrifugated. Lysates are kept at -80 °C. The protein content of the lysates is determined by DC protein assay (Biorad, Ref. 5000116). The proteins are resolved by SDS-PAGE and transferred to nitrocellulose membrane (GE Healthcare #10600003). The membranes are incubated overnight at 4 °C with antibodies specific for DDR1 (D1G6) (Cell signaling #5583), P-DDR1 (Y513) (E1N8F) (Cell Signaling # 14531) they are washed and then incubated with Alexa Fluor 680 goat anti-rabbit IgG secondary antibodies (Invitrogen, A21076). The bands are visualized and quantified using an Odyssey infrared imaging system (Li-Cor Biosciences). The percentage of DDR1 phosphorylation is finally plotted against concentration for each compound and EC50s for intracellular DDR1 inhibition are calculated using ActivityBase from IDBS.

T1 sequence (Q08345 610-905 limits assumed): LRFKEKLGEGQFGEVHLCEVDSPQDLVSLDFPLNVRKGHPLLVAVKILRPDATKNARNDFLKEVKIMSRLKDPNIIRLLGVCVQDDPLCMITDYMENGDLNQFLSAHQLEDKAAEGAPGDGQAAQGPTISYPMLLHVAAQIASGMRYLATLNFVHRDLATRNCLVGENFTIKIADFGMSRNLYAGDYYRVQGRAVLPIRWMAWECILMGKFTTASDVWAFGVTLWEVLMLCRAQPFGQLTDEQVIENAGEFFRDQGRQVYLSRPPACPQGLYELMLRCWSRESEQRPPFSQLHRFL

CN1CCN(c2ccc(Nc3nccc(-c4sc5nccc(=O)n5c4-c4ccc(Cl)cc4)n3)cc2)CC1 [Compound 45, 3-(4-Chloro-phenyl)-2-{2-[4-(4-methyl-piperazin-1-yl)-phenylamino]-pyrimidin-4-yl}-thiazolo[3,2-a]pyrimidin-5-one]
IC50 [1]: 4.23 nM
IC50 [2]: 12.6 nM
EC50 [3]: 7.63 nM

O=c1ccnc2sc(-c3ccnc(Nc4ccccc4)n3)c(-c3ccccc3)n12 [Compound 29, 3-Phenyl-2-(2-phenylamino-pyrimidin-4-yl)-thiazolo[3,2-a]pyrimidin-5-one]
IC50 [1]: 69.9 nM
IC50 [2]: 186 nM
EC50 [3]: 339 nM

O=c1ccnc2sc(-c3ccnc(Nc4cccc(N5CCN(CCO)CC5)c4)n3)c(C3CC3)n12 [Compound 65, 3-Cyclopropyl-2-(2-{3-[4-(2-hydroxy-ethyl)-piperazin-1-yl]-phenylamino}-pyrimidin-4-yl)-thiazolo[3,2-a]pyrimidin-5-one]
IC50 [1]: 118 nM
IC50 [2]: 466 nM
EC50 [3]: 163 nM

COc1cccc(-c2c(-c3ccnc(Nc4ccc(N5CCN(C)CC5)cc4)n3)sc3nccc(=O)n23)c1 [Compound 51, 3-(3-Methoxy-phenyl)-2-{2-[4-(4-methyl-piperazin-1-yl)-phenylamino]-pyrimidin-4-yl}-thiazolo[3,2-a]pyrimidin-5-one]
IC50 [1]: 8.34 nM
IC50 [2]: 27.7 nM
EC50 [3]: 19.2 nM

CN1CCN(c2ccc(Nc3nccc(-c4sc5nccc(=O)n5c4-c4ccccc4O)n3)cc2)CC1 [Compound 55, 3-(2-Hydroxy-phenyl)-2-{2-[4-(4-methyl-piperazin-1-yl)-phenylamino]-pyrimidin-4-yl}-thiazolo[3,2-a]pyrimidin-5-one]
IC50 [1]: 2.28 nM
IC50 [2]: 6.37 nM
EC50 [3]: 21.8 nM

CN1CCN(c2ccc(Nc3nccc(-c4sc5nccc(=O)n5c4-c4ccccc4Cl)n3)cc2)CC1 [Compound 39, 3-(2-Chloro-phenyl)-2-{2-[4-(4-methyl-piperazin-1-yl)-phenylamino]-pyrimidin-4-yl}-thiazolo[3,2-a]pyrimidin-5-one]
IC50 [1]: 7.03 nM
IC50 [2]: 21.5 nM
EC50 [3]: 35.3 nM

NS(=O)(=O)c1cccc(Nc2nccc(-c3sc4nccc(=O)n4c3-c3ccc(Cl)c(Cl)c3)n2)c1 [Compound 61, 3-{4-[3-(3,4-Dichloro-phenyl)-5-oxo-5H-thiazolo[3,2-a]pyrimidin-2-yl]-pyrimidin-2-ylamino}-benzenesulfonamide]
IC50 [1]: 12.9 nM
IC50 [2]: 40.8 nM
EC50 [3]: 63.2 nM

COc1ccc(-c2c(-c3ccnc(Nc4cccc(N5CCN(CCO)CC5)c4)n3)sc3nccc(=O)n23)cc1Cl [Compound 62, 3-(3-Chloro-4-methoxy-phenyl)-2-(2-{3-[4-(2-hydroxy-ethyl)-piperazin-1-yl]-phenylamino}-pyrimidin-4-yl)-thiazolo[3,2-a]pyrimidin-5-one]
IC50 [1]: 10.9 nM
IC50 [2]: 54 nM
EC50 [3]: 82.7 nM

NS(=O)(=O)c1cccc(Nc2nccc(-c3sc4nccc(=O)n4c3-c3cccc(Cl)c3Cl)n2)c1 [Compound 59, 3-{4-[3-(2,3-Dichloro-phenyl)-5-oxo-5H-thiazolo[3,2-a]pyrimidin-2-yl]-pyrimidin-2-ylamino}-benzenesulfonamide]
IC50 [1]: 10.2 nM
IC50 [2]: 47.3 nM
EC50 [3]: 99.3 nM

O=c1ccnc2sc(-c3ccnc(Nc4cccc(N5CCN(CCO)CC5)c4)n3)c(-c3ccc(F)c(C(F)(F)F)c3)n12 [Compound 63, 3-(4-Fluoro-3-trifluoromethyl-phenyl)-2-(2-{3-[4-(2-hydroxy-ethyl)-piperazin-1-yl]-phenylamino}-pyrimidin-4-yl)-thiazolo[3,2-a]pyrimidin-5-one]
IC50 [1]: 119 nM
IC50 [2]: 325 nM
EC50 [3]: 142 nM

O=c1ccnc2sc(-c3ccnc(Nc4cccc(N5CCN(CCO)CC5)c4)n3)c(-c3cccc(Cl)c3)n12 [Compound 41, 3-(3-Chloro-phenyl)-2-(2-{3-[4-(2-hydroxy-ethyl)-piperazin-1-yl]-phenylamino}-pyrimidin-4-yl)-thiazolo[3,2-a]pyrimidin-5-one]
IC50 [1]: 6.24 nM
IC50 [2]: 36.9 nM
EC50 [3]: 40.4 nM

O=c1ccnc2sc(-c3ccnc(Nc4cccc(N5CCN(CCO)CC5)c4)n3)c(-c3ccc(F)cc3)n12 [Compound 58, 3-(4-Fluoro-phenyl)-2-(2-{3-[4-(2-hydroxy-ethyl)-piperazin-1-yl]-phenylamino}-pyrimidin-4-yl)-thiazolo[3,2-a]pyrimidin-5-one]
IC50 [1]: 6.4 nM
IC50 [2]: 30.5 nM
EC50 [3]: 28 nM

CCc1c(C)nc2sc(-c3ccnc(Nc4cccc(N5CCN(CCO)CC5)c4)n3)c(-c3ccccc3)n2c1=O [Compound 77, 6-Ethyl-2-(2-{3-[4-(2-hydroxy-ethyl)-piperazin-1-yl]-phenylamino}-pyrimidin-4-yl)-7-methyl-3-phenyl-thiazolo[3,2-a]pyrimidin-5-one]
IC50 [1]: 25.5 nM
IC50 [2]: 69.4 nM
EC50 [3]: 46.8 nM

O=c1ccnc2sc(-c3ccnc(Nc4cccc(N5CCN(CCO)CC5)c4)n3)c(-c3cccc(Cl)c3Cl)n12 [Compound 60, 3-(2,3-Dichloro-phenyl)-2-(2-{3-[4-(2-hydroxy-ethyl)-piperazin-1-yl]-phenylamino}-pyrimidin-4-yl)-thiazolo[3,2-a]pyrimidin-5-one]
IC50 [1]: 5.43 nM
IC50 [2]: 18.3 nM
EC50 [3]: 31.9 nM

Cc1cc(=O)n2c(-c3ccccc3)c(-c3ccnc(Nc4cccc(N5CCN(CCO)CC5)c4)n3)sc2n1 [Compound 72, 2-(2-{3-[4-(2-Hydroxy-ethyl)-piperazin-1-yl]-phenylamino}-pyrimidin-4-yl)-7-methyl-3-phenyl-thiazolo[3,2-a]pyrimidin-5-one]
IC50 [1]: 9.06 nM
IC50 [2]: 26.9 nM
EC50 [3]: 59 nM
